Values quoted from earlier work, collected in US20080146639A1, “Pharmaceutical Combination of Angiotensin II Antagonists and Angiotensin I Converting Enzyme Inhibitors” (Boehringer Ingelheim Pharma GmbH & Co Kg., priority 2000, published 2008).

Settings: treatment with ACE inhibitor ramipril; HOPE study (New Engl. J. Med., Jan. 20, 2000)

SMILES: CCOC(=O)[C@H](CCc1ccccc1)N[C@@H](C)C(=O)N1[C@H](C(=O)O)C[C@@H]2CCC[C@@H]21 [ramipril]
- reduction of the risk of the combined primary cardiovascular outcome: 22%
